Reference: ChEMBL document CHEMBL1201862, “PubChem BioAssay data set” (2004)
Active and inactive are the calls of the source. Rule as the data show it, for most assays here: actives have a measured EC50 and inactives only a lower limit.

What was measured:
[1] = biological target: T1, Carboxy-terminal domain RNA polymerase II polypeptide A small phosphatase 1 (Homo sapiens, UniProt Q9GZU7); experiment: inhibitors of CTDSP1, concentration-response testing, biochemical assay, absorbance-based, actives from ultra-high-throughput screening (AID 540297); assay type: functional
T1 sequence (Q9GZU7 whole entry): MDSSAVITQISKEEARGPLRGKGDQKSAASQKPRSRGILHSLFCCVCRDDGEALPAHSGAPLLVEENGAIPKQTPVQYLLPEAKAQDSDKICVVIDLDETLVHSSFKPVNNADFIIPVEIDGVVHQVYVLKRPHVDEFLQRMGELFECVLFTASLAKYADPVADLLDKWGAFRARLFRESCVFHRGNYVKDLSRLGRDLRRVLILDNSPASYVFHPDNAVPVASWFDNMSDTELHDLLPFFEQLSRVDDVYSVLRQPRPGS

[2] = biological target: Glucose-6-phosphate 1-dehydrogenase (Homo sapiens, UniProt P11413); experiment: human G6PD enzyme inhibitors, dose response, selectivity assay for P. falciparum G6PD inhibitor project, biochemical, fluorescence (AID 504792); assay type: functional
Sequence of Glucose-6-phosphate 1-dehydrogenase (P11413 whole entry): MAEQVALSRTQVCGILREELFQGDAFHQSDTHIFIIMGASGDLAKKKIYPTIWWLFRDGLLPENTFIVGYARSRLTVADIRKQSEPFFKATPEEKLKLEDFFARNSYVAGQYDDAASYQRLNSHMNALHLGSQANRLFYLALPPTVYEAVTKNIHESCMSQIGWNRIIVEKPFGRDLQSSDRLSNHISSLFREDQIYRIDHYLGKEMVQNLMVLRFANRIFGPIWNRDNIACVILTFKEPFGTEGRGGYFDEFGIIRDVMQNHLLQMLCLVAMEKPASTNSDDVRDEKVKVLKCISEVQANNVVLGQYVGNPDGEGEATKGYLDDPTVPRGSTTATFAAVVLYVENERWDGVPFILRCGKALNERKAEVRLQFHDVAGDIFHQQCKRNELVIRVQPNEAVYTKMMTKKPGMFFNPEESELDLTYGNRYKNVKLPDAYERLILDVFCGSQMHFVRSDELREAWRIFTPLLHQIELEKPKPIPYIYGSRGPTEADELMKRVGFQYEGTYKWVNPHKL

[3] = biological target: T2, Calpain-2 catalytic subunit (Sus scrofa, UniProt P43367); experiment: pig calpain II inhibitor potency, dose response, biochemical, fluorogenic peptide substrate (AID 1420); assay type: functional
T2 sequence (P43367 whole entry): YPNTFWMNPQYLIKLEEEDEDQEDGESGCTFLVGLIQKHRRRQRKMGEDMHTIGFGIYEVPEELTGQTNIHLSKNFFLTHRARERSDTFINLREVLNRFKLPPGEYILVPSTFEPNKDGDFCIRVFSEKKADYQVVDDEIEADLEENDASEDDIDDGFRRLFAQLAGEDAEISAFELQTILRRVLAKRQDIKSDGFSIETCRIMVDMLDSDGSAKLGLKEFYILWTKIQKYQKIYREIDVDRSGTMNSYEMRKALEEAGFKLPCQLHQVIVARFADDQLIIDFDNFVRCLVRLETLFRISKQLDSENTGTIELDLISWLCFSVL

[4] = Luminescence Cell-Based Dose Response HTS to Identify Activators of Luciferase Translation or Activity in H4 […] Cells. [Related pubchem assays: 1829 (Project Summary), 1814 (Primary HTS)]; assay type: functional
H4 = experiment: Luminescence Cell-Based Dose Response HTS to Identify Activators of 5'UTR Stem-Loop Driven Prion Protein mRNA Translation in H4 Neuroglioblastoma Cells. [Related pubchem assays: 1829 (Project Summary), 1814 (Primary HTS)]; assay type: functional; conditions: Homo sapiens
[5] = Luminescence Cell-Based Dose Confirmation HTS to Identify Activators of 5'UTR Stem-Loop Driven Alpha-Synuclein mRNA Translation in H4 Neuroglioblastoma Cells. [Related pubchem assays: 1829 (Project Summary), 1814 (Primary HTS)]; assay type: functional
[6] = NIH-3T3 fibroblast cytotoxicity, dose response, cytotoxicity control, cell-based, fluorescence, Alamar Blue, secondary assay (AID 2327); assay type: functional;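 also: NIH-3T3 mouse fibroblasts cultured with fluconazole at 8 µg/mL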
[7] = C. albicans growth with fluconazole, confirmation, fluorescence, retest (AID 2467); assay type: functional, cell-based
[8] = biological target: FAD-linked sulfhydryl oxidase ALR (Homo sapiens, UniProt P55789); experiment: inhibitors of human ALR sulfhydryl oxidase, dose response, biochemical, H2O2 detection, luminescence, cherry-pick (AID 493248)
Sequence of FAD-linked sulfhydryl oxidase ALR (P55789 whole entry): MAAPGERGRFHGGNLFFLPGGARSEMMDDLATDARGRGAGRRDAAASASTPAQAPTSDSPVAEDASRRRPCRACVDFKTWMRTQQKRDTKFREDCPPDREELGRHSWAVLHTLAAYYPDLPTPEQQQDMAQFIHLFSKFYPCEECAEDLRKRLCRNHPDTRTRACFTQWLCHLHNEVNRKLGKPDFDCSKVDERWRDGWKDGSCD

cells [9] = assay type: functional, cell-based
cells [10] = assay type: functional, cell-based; remark: listed apart in the source
Cytochrome P450 2D6 = Cytochrome P450 2D6 (Homo sapiens, UniProt P10635);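 also: CYP2D6 member of a cytochrome P450 panel assay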
Sequence of Cytochrome P450 2D6 (P10635 whole entry): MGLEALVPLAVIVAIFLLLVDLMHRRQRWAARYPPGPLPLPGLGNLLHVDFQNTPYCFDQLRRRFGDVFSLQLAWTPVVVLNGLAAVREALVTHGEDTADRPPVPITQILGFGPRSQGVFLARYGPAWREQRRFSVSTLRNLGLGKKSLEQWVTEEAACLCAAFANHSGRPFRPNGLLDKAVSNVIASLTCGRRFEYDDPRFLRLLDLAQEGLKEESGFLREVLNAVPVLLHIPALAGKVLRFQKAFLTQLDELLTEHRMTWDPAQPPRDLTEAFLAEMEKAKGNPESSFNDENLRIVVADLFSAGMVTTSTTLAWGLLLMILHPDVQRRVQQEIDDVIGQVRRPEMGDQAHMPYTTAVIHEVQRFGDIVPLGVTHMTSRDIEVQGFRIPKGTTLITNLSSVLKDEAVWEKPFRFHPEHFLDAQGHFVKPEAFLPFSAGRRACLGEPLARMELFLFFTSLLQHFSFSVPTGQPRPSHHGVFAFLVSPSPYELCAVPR

[11] = HEp-2 cell cytotoxicity, dose response, cytotoxicity control for RSV inhibitor project, HTS (AID 2410); assay type: functional; conditions: human respiratory syncytial virus
Streptokinase A = biological target: T3, Streptokinase A (Streptococcus pyogenes serotype M1, UniProt P10520); experiment: S. pyogenes streptokinase expression inhibitors, potency, dose response, plasminogen activation absorbance, OD405 (AID 1914); assay type: functional, Streptococcus pyogenes M1 GAS;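 also: secreted streptokinase activity via plasminogen activation per viability signal from cell pellet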
T3 sequence (P10520 whole entry): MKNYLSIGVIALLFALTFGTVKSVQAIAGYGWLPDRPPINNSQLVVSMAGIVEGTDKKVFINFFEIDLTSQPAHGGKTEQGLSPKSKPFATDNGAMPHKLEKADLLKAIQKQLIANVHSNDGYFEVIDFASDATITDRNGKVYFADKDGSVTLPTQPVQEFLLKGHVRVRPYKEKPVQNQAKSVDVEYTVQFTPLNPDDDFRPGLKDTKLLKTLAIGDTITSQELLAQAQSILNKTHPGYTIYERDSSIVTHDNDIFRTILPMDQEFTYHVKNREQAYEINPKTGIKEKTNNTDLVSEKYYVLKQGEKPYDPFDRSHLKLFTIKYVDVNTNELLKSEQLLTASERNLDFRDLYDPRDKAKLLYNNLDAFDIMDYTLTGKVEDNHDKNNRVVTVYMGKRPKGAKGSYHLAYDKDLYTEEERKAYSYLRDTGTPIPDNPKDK

[12] = test system: Streptococcus sp. 'group A'; experiment: growth inhibition of control SK(-) GAS strain, dose response, counter-screen for streptokinase expression inhibitor project, luminescence, kanamycin, BacTiterGlo, confirmation (AID 1900); assay type: functional, organism-based
Streptococcus = experiment: Group A Streptococcus viability loss, dose response, counter-screen for streptokinase expression inhibitor project, luminescence, BacTiterGlo (AID 1915); assay type: functional, organism-based;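 also: potency for reduction of bacterial viability or growth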
[13] = biological target: T4, Heat shock factor protein 1 (Mus musculus, UniProt P38532); experiment: inhibition of MG132-induced HSE-luciferase signal, confirmation, cell-based, NIH3T3, luminescence, dose retest (AID 2382); assay type: functional;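 also: NIH3T3 fibroblasts with HSF1-driven luciferase reporter stressed by proteasome inhibitor MG132; luminescence from HSF1-driven luciferase expression after 8 hours of MG132 stress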
T4 sequence (P38532 whole entry): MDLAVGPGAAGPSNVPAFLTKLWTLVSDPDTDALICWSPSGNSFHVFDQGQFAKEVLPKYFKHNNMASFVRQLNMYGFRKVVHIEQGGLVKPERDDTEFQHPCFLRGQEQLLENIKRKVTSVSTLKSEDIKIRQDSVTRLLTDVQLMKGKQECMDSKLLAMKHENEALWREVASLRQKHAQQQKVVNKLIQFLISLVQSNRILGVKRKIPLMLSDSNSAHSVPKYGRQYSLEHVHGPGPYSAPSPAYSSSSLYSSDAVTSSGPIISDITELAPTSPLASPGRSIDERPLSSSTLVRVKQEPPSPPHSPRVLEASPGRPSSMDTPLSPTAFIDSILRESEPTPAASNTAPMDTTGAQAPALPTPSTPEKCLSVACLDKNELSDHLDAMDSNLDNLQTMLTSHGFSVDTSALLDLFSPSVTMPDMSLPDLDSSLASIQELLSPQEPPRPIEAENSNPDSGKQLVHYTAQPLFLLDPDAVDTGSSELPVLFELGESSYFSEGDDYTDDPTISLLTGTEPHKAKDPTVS

[14] = Shn3 3'UTR reporter inhibitors, dose response, cell-based, Clone20 osteoblasts, firefly luciferase, cherry-picked (AID 624132); assay type: functional;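 also: firefly luciferase luminescence from reporter carrying the Shn3 3'UTR in osteoblasts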
[15] = control 3'UTR Renilla luciferase suppression, dose response, counter-screen for Shn3 inhibitor project, cell-based, Clone20-Shn3RL, cherry-picked (AID 624133); assay type: functional
Paired box protein Pax-8 = Paired box protein Pax-8 (Homo sapiens, UniProt Q06710); experiment: inhibitors of PAX8-driven TPO luciferase reporter, dose response, RMG-I cells, cherry-pick (AID 687027); assay type: functional, cell-based;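 also: luciferase reporter driven by Pax8 target thyroperoxidase promoter measured by SteadyGlo luminescence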
Sequence of Paired box protein Pax-8 (Q06710 whole entry): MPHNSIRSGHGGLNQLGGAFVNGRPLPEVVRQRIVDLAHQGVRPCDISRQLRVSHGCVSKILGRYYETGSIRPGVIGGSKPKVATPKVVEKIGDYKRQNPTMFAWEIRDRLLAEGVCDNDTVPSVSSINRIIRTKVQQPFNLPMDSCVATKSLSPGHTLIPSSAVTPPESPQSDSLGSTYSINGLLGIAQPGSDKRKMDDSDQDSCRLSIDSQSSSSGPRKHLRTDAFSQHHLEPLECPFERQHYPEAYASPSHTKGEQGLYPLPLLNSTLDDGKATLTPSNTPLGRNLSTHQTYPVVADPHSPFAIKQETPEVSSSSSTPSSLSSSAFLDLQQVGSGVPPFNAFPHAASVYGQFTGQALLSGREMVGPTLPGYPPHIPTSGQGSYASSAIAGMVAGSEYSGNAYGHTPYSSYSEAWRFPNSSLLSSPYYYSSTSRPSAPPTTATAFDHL

[16] = inhibitors of intracellular T. cruzi replication, confirmation, NIH3T3 host cells, beta-gal luminescence (AID 2044); assay type: functional, cell-based;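 also: intracellular parasites grown in NIH/3T3 mouse fibroblasts as host cells; luminescent beta-galactosidase reporter signal from transgenic T. cruzi replicating inside host cells; inhibitors lower the luminescence signal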
[17] = HepG2 cell cytotoxicity, dose response, cytotoxicity control for Shn3 inhibitor project, CellTiter-Glo, cherry-picked (AID 624134); assay type: functional, cell-based
[18] = cytotoxicity toward NIH3T3 fibroblasts, dose response, counter-screen, cell-based, ATP luminescence, mouse fibroblasts (AID 2010); assay type: functional;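 also: cells exposed to compound for about 90 hours before reading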

Cc1oc2c(C)c3oc(=O)c(CC(=O)N[C@@H](CCCNC(N)=O)C(=O)O)c(C)c3cc2c1C
IC50 [1]: 9.59 µM (active)

CCn1c(N)c(C(=O)NC)sc1=S
IC50 [2]: > 80 µM (inactive)

CCn1c(SCc2ccc(F)cc2)nnc1C1CCN(S(=O)(=O)c2ccc(OC)cc2)CC1
IC50 [3]: 26.2 µM (not active)

COc1ccc(NC2CC(=O)N(C(C)C)C2=O)cc1 (centres undefined)
EC50 [4]: 18.8 µM (active)
EC50 (H4): > 120 µM (not active)
EC50 [5]: 5.94 µM (active)

CCn1c(=O)c(C(=O)NCc2cccnc2)c(O)c2ccccc21
EC50 [6]: > 150 µM (inactive)
EC50 [7]: > 38 µM (not active)

COc1ccc(OC)c(NC(=O)c2ccc3c(=O)n(CCc4ccccc4)c(=S)[nH]c3c2)c1
IC50 [3]: 13 µM (not active)

O=C(CNC(=O)c1ccccc1)NCC(=O)OCC(=O)c1ccc([N+](=O)[O-])cc1
IC50 [2]: > 80 µM (inactive)

Cc1cccc(NC(=O)c2cc(-c3ccc(C)s3)nc3ccccc23)n1
EC50 [4]: > 60 µM (not active)
EC50 (H4): 9.88 µM (active)
EC50 [5]: > 120 µM (not active)

COc1ccc(NC(=O)NC(C)c2ccccc2)cc1 (centres undefined)
EC50 [6]: 73.5 µM (active)
EC50 [7]: > 38 µM (not active)

CCCc1cc(C(=O)Nc2sc3c(c2C#N)CCC3)no1
EC50 [6]: > 150 µM (inactive)
EC50 [7]: 1.02 µM (active)

COc1ccc(CNC(=O)c2ccc(C(C)C)cc2)cc1
EC50 [4]: 0.16 µM (inconclusive)
EC50 (H4): 80.9 µM (active)
EC50 [5]: 53.5 µM (active)

COc1ccc2c(c1OC)C(=O)N1N=C(c3ccc(O)cc3)CC21 (centres undefined)
EC50 [6]: > 150 µM (inactive)
AC50 [8]: 1.11 µM (active)

C[N+]1(CC(=O)OCCCc2ccccc2)CCCC1
IC50 [1]: 6.36 µM (active)

Fc1ccccc1C1CCN(Cc2nc(CC3CC3)no2)C1 (centres undefined)
EC50 [4]: 17.2 µM (active)
EC50 (H4): 15.4 µM (active)
EC50 [5]: 15 µM (active)

CCc1ccc(NC(=O)C[S+]([O-])CC(=O)Nc2ccc(F)cc2F)cc1 (centres undefined)
IC50 [1]: 11.2 µM (active)

CCC(C)c1ccccc1OCCn1ccnc1 (centres undefined)
IC50 [2]: > 80 µM (inactive)

Cc1cc(=O)oc2cc(OCC(=O)N3c4ccccc4NC(=O)C3(C)C)ccc12
IC50 [1]: 8.21 µM (active)

Cc1cc(C(=O)O)oc(=O)c1
EC50 (cells [9]): > 350 µM (not active)
EC50 (cells [10]): 58.9 µM (active)

CCCCn1c(N)c(-c2nc3ccccc3o2)c2c([N+](=O)[O-])nn(C)c(=O)c21
IC50 [1]: 4.75 µM (active)

Cc1ccc(CSc2ccc3nnc(-c4cccnc4)n3n2)cc1
IC50 [3]: 5.64 µM (active)

COc1ccc(CNC(=O)C2CCN(S(=O)(=O)c3ccc(-c4nn[nH]n4)cc3)CC2)cc1
IC50 [3]: 14.9 µM (not active)

O=C(Nc1ccccc1N1CCOCC1)c1cc(F)cc(F)c1
EC50 [6]: > 160 µM (inactive)
EC50 [7]: 1.64 µM (active)

COc1cccc(C(=O)Nc2nc(O)c3c(n2)CCCC3)c1
EC50 [4]: > 120 µM (not active)
EC50 (H4): > 120 µM (not active)
EC50 [5]: 14.5 µM (active)

COc1cccc(C2=CC(c3ccccc3)n3nnnc3N2)c1 (centres undefined)
AC50 (Cytochrome P450 2D6): 31.6 µM (inconclusive)
IC50 [3]: 2.32 µM (not active)

COc1ccc2c(c1)-c1nc(NC(=O)c3ccco3)sc1CC2
EC50 (cells [9]): > 350 µM (not active)
EC50 (cells [10]): 23 µM (active)
CC50 [11]: 18.4 µM (active)

Cc1ccc(C)c(N2CCN(C(=O)CCCCCn3c(=S)[nH]c4ccc(N5CCOCC5)cc4c3=O)CC2)c1
EC50 (Streptokinase A): > 150 µM (not active)
EC50 [12]: 6.52 µM (active)
EC50 (Streptococcus): 140 µM (active)
EC50 [13]: 5.28 µM (active)
AC50 [14]: 1.99 µM (active)
AC50 [15]: 3.48 µM (active)
AC50 (Paired box protein Pax-8): 5.97 µM (active)
EC50 [16]: 0.348 µM (active)
AC50 [17]: 5.02 µM (active)
EC50 [18]: 16.5 µM (active)

Cc1ccc(-n2ncc(Cl)c2C(=O)NCc2ccccc2)cc1
EC50 [4]: 4.06 µM (active)
EC50 (H4): 5.76 µM (active)
EC50 [5]: 3.28 µM (active)

COC(=O)c1cn(C(=O)/C=C/c2ccc(OC)c(OC)c2)c2ccccc12
EC50 [4]: 32.1 µM (active)
EC50 (H4): > 120 µM (not active)
EC50 [5]: 20.2 µM (active)

CC(=O)Nc1ccc(S(=O)(=O)[N-]C2=C([n+]3ccn(-c4ccccn4)c3)C(=O)c3ccccc3C2=O)cc1
EC50 (cells [9]): > 350 µM (not active)
EC50 (cells [10]): > 350 µM (not active)

CC(C)NC(=O)C1CCCN(S(C)(=O)=O)C1 (centres undefined)
IC50 [3]: 7.4 µM (not active)

Cc1ccc(OCC(=O)NNC(=O)C(C)Sc2ncnc3sc(C)c(C)c23)cc1 (centres undefined)
IC50 [3]: 2.51 µM (not active)

CC(C)C(NC(=O)c1ccc(Cl)cc1Cl)C(=O)N1CCN(S(=O)(=O)c2ccccc2)CC1 (centres undefined)
AC50 [14]: 48.5 µM (active)
AC50 [15]: 21 µM (active)

C=C(C)CNC(=S)N/N=C/c1c(F)cccc1F
IC50 [3]: 20.3 µM (not active)

COc1cccc(-c2c(C(=O)N/N=C/c3ccc(C)o3)nnn2-c2nonc2N)c1
IC50 [2]: > 80 µM (inactive)

Cc1oc(/N=C/c2ccc3c(c2)OCO3)c(C#N)c1C
EC50 [4]: 38.1 µM (active)
EC50 (H4): > 120 µM (not active)
EC50 [5]: > 120 µM (not active)

Cc1nc2ccccc2c(=O)n1/N=C/c1cn(-c2ccccc2)nc1-c1cccs1
EC50 [4]: 14.8 µM (active)
EC50 (H4): 6.75 µM (active)
EC50 [5]: 5.11 µM (active)
